Source: patent US7642251B2, “Compounds for the treatment of hepatitis C” (Bristol-Myers Squibb Company, priority 2007, dated 2010)
Like-named read-outs stand apart in the source and are kept apart here.

Columns and labels:
HCV NS5B = target: T1, HCV NS5B (Hepatitis C virus genotype 1b, UniProt Q9WMX2); assay: Modified HCV NS5B RdRp enzyme assay (preincubation protocol); assay type: biochemical
T1 construct: The cDNA encoding the NS5B protein of HCV, genotype 1b; made in house; host or cells: E. coli BL21(DE3)
T1 sequence (Q9WMX2 2420-2992): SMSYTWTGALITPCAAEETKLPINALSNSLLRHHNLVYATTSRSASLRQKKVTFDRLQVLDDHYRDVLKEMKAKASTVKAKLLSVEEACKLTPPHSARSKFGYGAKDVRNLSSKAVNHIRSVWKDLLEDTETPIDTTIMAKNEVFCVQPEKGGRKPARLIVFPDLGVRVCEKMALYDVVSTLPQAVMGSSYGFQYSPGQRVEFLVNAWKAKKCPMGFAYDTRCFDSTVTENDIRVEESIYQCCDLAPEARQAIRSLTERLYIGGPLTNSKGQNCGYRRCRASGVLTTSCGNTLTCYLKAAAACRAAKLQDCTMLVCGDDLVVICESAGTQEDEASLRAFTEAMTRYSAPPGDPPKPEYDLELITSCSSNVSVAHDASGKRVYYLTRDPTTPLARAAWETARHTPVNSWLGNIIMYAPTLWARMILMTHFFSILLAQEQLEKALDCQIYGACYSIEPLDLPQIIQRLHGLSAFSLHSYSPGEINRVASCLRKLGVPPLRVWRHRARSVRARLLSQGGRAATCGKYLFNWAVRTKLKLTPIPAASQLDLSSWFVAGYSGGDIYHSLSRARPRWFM
Protocol: HCV NS5B RdRp cloning, expression, and purification. The cDNA encoding the NS5B protein of HCV, genotype 1b, was cloned into the pET21a expression vector. The protein was expressed with an 18 amino acid C-terminal truncation to enhance the solubility. The E. coli competent cell line BL21(DE3) was used for expression of the protein. Cultures were grown at 37° C. for ˜4 hours until the cultures reached an optical density of 2.0 at 600 nm. The cultures were cooled to 20° C. and induced with 1 mM IPTG. Fresh ampicillin was added to a final concentration of 50 μg/ml and the cells were grown overnight at 20° C.
Cell pellets (3 L) were lysed for purification to yield 15-24 mgs of purified NS5B. The lysis buffer consisted of 20 mM Tris-HCl, pH 7.4, 500 mM NaCl, 0.5% triton X-100, 1 mM DTT, 1 mM EDTA, 20% glycerol, 0.5 mg/ml lysozyme, 10 mM MgCl2, 15 ug/ml deoxyribonuclease I, and Complete™ protease inhibitor tablets (Roche). After addition of the lysis buffer, frozen cell pellets were resuspended using a tissue homogenizer. To reduce the viscosity of the sample, aliquots of the lysate were sonicated on ice using a microtip attached to a Branson sonicator. The sonicated lysate was centrifuged at 100,000×g for 1 hr at 4° C. and filtered through a 0.2 μm filter unit (Corning).
The protein was purified using three sequential chromatography steps: Heparin sepharose CL-6B, polyU sepharose 4B, and Hitrap SP sepharose (Pharmacia). The chromatography buffers were identical to the lysis buffer but contained no lysozyme, deoxyribonuclease I, MgCl2 or protease inhibitor and the NaCl concentration of the buffer was adjusted according to the requirements for charging the protein onto the column. Each column was eluted with a NaCl gradient which varied in length from 5-50 column volumes depending on the column type. After the final chromatography step, the resulting purity of the enzyme is >90% based on SDS-PAGE analysis. The enzyme was aliquoted and stored at −80° C.
Standard HCV NS5B RdRp enzyme assay. HCV RdRp genotype 1b assays were run in a final volume of 60 μl in 96 well plates (Costar 3912). The assay buffer is composed of 20 mM Hepes, pH 7.5, 2.5 mM KCl, 2.5 mM MgCl2, 1 mM DTT, 1.6 U RNAse inhibitor (Promega N2515), 0.1 mg/ml BSA (Promega R3961), and 2% glycerol. All compounds were serially diluted (3-fold) in DMSO and diluted further in water such that the final concentration of DMSO in the assay was 2%. HCV RdRp genotype 1b enzyme was used at a final concentration of 28 nM. A polyA template was used at 6 nM, and a biotinylated oligo-dT12 primer was used at 180 nM final concentration. Template was obtained commercially (Amersham 27-4110). Biotinylated primer was prepared by Sigma Genosys. 3H-UTP was used at 0.6 μCi (0.29 μM total UTP). Reactions were initiated by the addition of enzyme, incubated at 30° C. for 60 min, and stopped by adding 25 μl of 50 mM EDTA containing SPA beads (4 μg/μl, Amersham RPNQ 0007). Plates were read on a Packard Top Count NXT after >1 hr incubation at room temperature.
Modified HCV NS5B RdRp enzyme assay. A modified enzyme assay was performed essentially as described for the standard enzyme assay except for the following: The biotinylated oligo dT12 primer was precaptured on streptavidin-coated SPA beads by mixing primer and beads in assay buffer and incubating at room temperature for one hour. Unbound primer was removed after centrifugation. The primer-bound beads were resuspended in 20 mM Hepes buffer, pH 7.5 and used in the assay at final concentrations of 20 nM primer and 0.67 μg/μl beads. Order of addition in the assay: enzyme (14 nM) was added to diluted compound followed by the addition of a mixture of template (0.2 nM), 3H-UTP (0.6 μCi, 0.29 μM), and primer-bound beads, to initiate the reaction; concentrations given are final. Reactions were allowed to proceed for 4 hours at 30° C.
IC50 values for compounds were determined using seven different [I]. […]

HCV replicon cells = assay: HCV replicon FRET assay; assay type: cell-based; details: Hepatitis C virus
Text: FRET Assay Preparation. To perform the HCV FRET screening assay, 96-well cell culture plates were used. The FRET peptide (Anaspec, Inc.) (Taliani et al., Anal. Biochem. 1996, 240, 60-67) contains a fluorescence donor, EDANS, near one end of the peptide and an acceptor, DABCYL, near the other end. The fluorescence of the peptide is quenched by […] resonance energy transfer (RET) between the donor and the acceptor, but as the NS3 protease cleaves the peptide the products are released from RET quenching and the fluorescence of the donor becomes apparent. The assay reagent was made as follows: 5× cell Luciferase cell culture lysis reagent from Promega (#E153A) diluted to 1× with dH2O, NaCl added to 150 mM final, the FRET peptide diluted to 20 μM final from a 2 mM stock.
To prepare plates, HCV replicon cells, with or without a Renilla luciferase reporter gene, were trypsinized and placed into each well of a 96-well plate with titrated test compounds added in columns 3 through 12; columns 1 and 2 contained a control compound (HCV protease inhibitor), and the bottom row contained cells without compound. The plates were then placed in a CO2 incubator at 37° C.
Assays. Subsequent to addition of the test compounds described above (FRET Assay Preparation), at various times the plate was removed and Alamar blue solution (Trek Diagnostics, #00-100) was added per well as a measure of cellular toxicity. After reading in a Cytoflour 4000 instrument (PE Biosystems), plates were rinsed with PBS and then used for FRET assay by the addition of 30 ul of the FRET peptide assay reagent described above (FRET Assay Preparation) per well. The plate was then placed into the Cytoflour 4000 instrument which had been set to 340 excite/490 emission, automatic mode for 20 cycles and the plate read in a kinetic mode. Typically, the signal to noise using an endpoint analysis after the reads was at least three-fold. Alternatively, after Alamar blue reading, plates were rinsed with PBS, 50 ul of DMEM (high glucose) without phenol red was added and plates were then used for luciferase assay using the Promega Dual-Glo Luciferase Assay System.
Compound analysis was determined by quantification of the relative HCV replicon inhibition and the relative cytotoxicity values. To calculate cytoxicity values, the average Alamar Blue fluorescence signals from the control wells were set as 100% non-toxic. The individual signals in each of the compound test wells were then divided by the average control signal and multiplied by 100% to determine […]. To calculate the HCV replicon inhibition values, an average background value was obtained from the two wells containing the highest amount of HCV protease inhibitor at the end of the assay period. These numbers were similar to those obtained from naïve Huh-7 cells.
The background numbers were then subtracted from the average signal obtained from the control wells and this number was used as 100% activity. The individual signals in each of the compound test wells were then divided by the averaged control values after background subtraction and multiplied by 100% to determine percent activity. EC50 values for a protease inhibitor titration were calculated as the concentration which caused a 50% reduction in FRET or luciferase activity. The two numbers generated for the compound plate, percent cytoxicity and percent activity were used to determine compounds of interest for further analysis.

[1] = preincubation protocol, read-out: IC50

Row | SMILES | IC50 (HCV NS5B; [1]) [nM] | EC50 (HCV replicon cells; FRET assay, read-out: EC50) [nM] | IC50 (HCV NS5B) [nM] | EC50 (HCV replicon cells) [nM]
1 | COc1ccc2c(c1)C=C(c1cccc(OCCN3CCOCC3)c1)Cn1c-2c(C2CCCCC2)c2ccc(C(=O)NS(=O)(=O)C(C)C)cc21 | 4.58 to 500 | > 500 |  | 
2 | COc1ccc2c(c1)C=C(c1ncccc1N(C)C)Cn1c-2c(C2CCCCC2)c2ccc(C(=O)O)cc21 | 4.58 to 500 | 4.58 to 500 |  | 
3 | COc1ccc2c(c1)C=C(c1ncccc1S(=O)(=O)N1C3CCC1CN(C)C3)Cn1c-2c(C2CCCCC2)c2ccc(C(=O)O)cc21 |  |  | > 500 | 4.58 to 500
4 | COc1ccc2c(c1)C=C(c1ncccc1C(=O)N1CCCCC1)Cn1c-2c(C2CCCCC2)c2ccc(C(=O)NS(=O)(=O)N(C)C)cc21 | 4.58 to 500 | 4.58 to 500 |  | 
5 | COc1ccc2c(c1)C=C(c1ncccc1C(=O)N1CCC(O)CC1)Cn1c-2c(C2CCCCC2)c2ccc(C(=O)O)cc21 | 4.58 to 500 | 4.58 to 500 |  | 
6 | COc1ccc2c(c1)C=C(c1ccccc1-c1noc(C)n1)Cn1c-2c(C2CCCCC2)c2ccc(C(=O)NS(=O)(=O)C(C)C)cc21 | 4.58 to 500 | 4.58 to 500 |  | 
7 | COc1ccc2c(c1)C=C(c1ccccc1S(=O)(=O)N(C)C)Cn1c-2c(C2CCCCC2)c2ccc(C(=O)NS(=O)(=O)C(C)C)cc21 | 4.58 to 500 | > 500 |  | 
8 | COc1ccc2c(c1)C=C(c1ncccc1C(=O)N(C)C)Cn1c-2c(C2CCCCC2)c2ccc(C(=O)O)cc21 | 4.58 to 500 | 4.58 to 500 |  | 
9 | COc1ccc2c(c1)C=C(c1ncccc1C(=O)N1CCCC1)Cn1c-2c(C2CCCCC2)c2ccc(C(=O)O)cc21 | 4.58 to 500 | 4.58 to 500 |  | 
10 | COc1ccc2c(c1)C=C(c1c(F)cccc1C(F)(F)F)Cn1c-2c(C2CCCCC2)c2ccc(C(=O)NS(=O)(=O)C(C)C)cc21 | 4.58 to 500 | 4.58 to 500 |  | 
11 | COc1ccc2c(c1)C=C(c1ccccc1OCCN1CCOCC1)Cn1c-2c(C2CCCCC2)c2ccc(C(=O)NS(=O)(=O)C(C)C)cc21 | 4.58 to 500 | 4.58 to 500 |  | 
12 | COc1ccc2c(c1)C=C(c1ccccc1OCCN(C)C)Cn1c-2c(C2CCCCC2)c2ccc(C(=O)NS(=O)(=O)C(C)C)cc21 | 4.58 to 500 | 4.58 to 500 |  | 
13 | COc1ccc2c(c1)C=C(c1ccc3sc(C)nc3c1)Cn1c-2c(C2CCCCC2)c2ccc(C(=O)O)cc21 | 4.58 to 500 | > 500 |  | 
14 | COc1ccc2c(c1)C=C(c1ccccc1C(=O)N1C3CCC1CN(C)C3)Cn1c-2c(C2CCCCC2)c2ccc(C(=O)OC(C)(C)C)cc21 |  |  | > 500 | > 500
15 | COc1ccc2c(c1)C=C(c1ccccc1C(=O)N1CCOCC1)Cn1c-2c(C2CCCCC2)c2ccc(C(=O)OC(C)(C)C)cc21 | > 500 | > 500 |  | 
16 | COc1ccc2c(c1)C=C(c1ncccc1C(=O)N1C3CCC1CN(C)C3)Cn1c-2c(C2CCCCC2)c2ccc(C(=O)O)cc21 |  |  | 4.58 to 500 | 4.58 to 500
17 | COc1ccc2c(c1)C=C(c1ncccc1C(=O)N1CCCCC1)Cn1c-2c(C2CCCCC2)c2ccc(C(=O)O)cc21 | 4.58 to 500 | 4.58 to 500 |  | 
18 | COc1ccc2c(c1)C=C(c1ccccc1S(=O)(=O)N(C)CCN(C)C)Cn1c-2c(C2CCCCC2)c2ccc(C(=O)NS(=O)(=O)C(C)C)cc21 | 4.58 to 500 | 4.58 to 500 |  | 
19 | COc1ccc2c(c1)C=C(c1cccc3c1OCCO3)Cn1c-2c(C2CCCCC2)c2ccc(C(=O)NS(=O)(=O)C(C)C)cc21 | 4.58 to 500 | > 500 |  | 
20 | COc1ccc2c(c1)C=C(c1nccc(N(C)C)n1)Cn1c-2c(C2CCCCC2)c2ccc(C(=O)NS(=O)(=O)N(C)C)cc21 | 4.58 to 500 | > 500 |  | 
21 | COc1ccc2c(c1)C=C(c1ccccc1S(=O)(=O)N1CCCC1)Cn1c-2c(C2CCCCC2)c2ccc(C(=O)NS(=O)(=O)C(C)C)cc21 | 4.58 to 500 | > 500 |  | 
22 | COc1ccc2c(c1)C=C(c1ncccc1C(=O)N1CCN(C)CC1)Cn1c-2c(C2CCCCC2)c2ccc(C(=O)O)cc21 | 4.58 to 500 | 4.58 to 500 |  | 
23 | COc1ccc2c(c1)C=C(c1ccccc1CS(C)(=O)=O)Cn1c-2c(C2CCCCC2)c2ccc(C(=O)NS(=O)(=O)C(C)C)cc21 | 4.58 to 500 | 4.58 to 500 |  | 
24 | COc1ccc2c(c1)C=C(c1ncccc1S(=O)(=O)N1CCOCC1)Cn1c-2c(C2CCCCC2)c2ccc(C(=O)O)cc21 | 4.58 to 500 | 4.58 to 500 |  | 
25 | COc1ccc2c(c1)C=C(c1ncccc1C(=O)N1CCN(C)CC1)Cn1c-2c(C2CCCCC2)c2ccc(C(=O)NS(=O)(=O)N(C)C)cc21 | 4.58 to 500 | 4.58 to 500 |  | 
26 | COc1ccc2c(c1)C=C(c1ncccc1S(=O)(=O)N1CCOCC1)Cn1c-2c(C2CCCCC2)c2ccc(C(=O)NS(=O)(=O)N(C)C)cc21 | 4.58 to 500 | 4.58 to 500 |  | 
